Laboratory results published in article PMC11606603, “The membrane domains of mammalian adenylyl cyclases are lipid receptors” (eLife, 2024).
Values joined by “and” are separate entries in the source; they are usually repeats but may differ in a detail not shown here. Equal entries are not always repeated.

Assays:
Assay type in all cases: biochemical
mAC8 = molecular target: T1, mAC8 (Homo sapiens, UniProt P40145); assay: AC assay, Gsα-stimulated mAC8 in membranes from transfected HEK293 cells; conditions: 20µM fatty acid concentration
T1 construct: Human mAC genes were from GenScript and fitted with a C-terminal FLAG-tag; FLAG (C); made in house; host or cells: HEK293, permanently transfected; membrane preparation
Outline: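 Human AC, FLAG-tagged, stably expressed in HEK293; membranes used as enzyme. 1 mM ATP, 2 mM MgCl2, ATP regeneration, MOPS pH 7.5; cAMP kit readout.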

mAC4 = molecular target: T2, mAC4 (Homo sapiens, UniProt Q8NFM4); assay: AC assay, Gsα-stimulated mAC4 in membranes from transfected HEK293 cells; conditions: 20 µM fatty acid; 300 nM Gsα; single experiments
T2 construct: Human mAC genes were from GenScript and fitted with a C-terminal FLAG-tag; FLAG (C); made in house; host or cells: HEK293, permanently transfected; membrane preparation
T2 sequence (Q8NFM4 1-1077): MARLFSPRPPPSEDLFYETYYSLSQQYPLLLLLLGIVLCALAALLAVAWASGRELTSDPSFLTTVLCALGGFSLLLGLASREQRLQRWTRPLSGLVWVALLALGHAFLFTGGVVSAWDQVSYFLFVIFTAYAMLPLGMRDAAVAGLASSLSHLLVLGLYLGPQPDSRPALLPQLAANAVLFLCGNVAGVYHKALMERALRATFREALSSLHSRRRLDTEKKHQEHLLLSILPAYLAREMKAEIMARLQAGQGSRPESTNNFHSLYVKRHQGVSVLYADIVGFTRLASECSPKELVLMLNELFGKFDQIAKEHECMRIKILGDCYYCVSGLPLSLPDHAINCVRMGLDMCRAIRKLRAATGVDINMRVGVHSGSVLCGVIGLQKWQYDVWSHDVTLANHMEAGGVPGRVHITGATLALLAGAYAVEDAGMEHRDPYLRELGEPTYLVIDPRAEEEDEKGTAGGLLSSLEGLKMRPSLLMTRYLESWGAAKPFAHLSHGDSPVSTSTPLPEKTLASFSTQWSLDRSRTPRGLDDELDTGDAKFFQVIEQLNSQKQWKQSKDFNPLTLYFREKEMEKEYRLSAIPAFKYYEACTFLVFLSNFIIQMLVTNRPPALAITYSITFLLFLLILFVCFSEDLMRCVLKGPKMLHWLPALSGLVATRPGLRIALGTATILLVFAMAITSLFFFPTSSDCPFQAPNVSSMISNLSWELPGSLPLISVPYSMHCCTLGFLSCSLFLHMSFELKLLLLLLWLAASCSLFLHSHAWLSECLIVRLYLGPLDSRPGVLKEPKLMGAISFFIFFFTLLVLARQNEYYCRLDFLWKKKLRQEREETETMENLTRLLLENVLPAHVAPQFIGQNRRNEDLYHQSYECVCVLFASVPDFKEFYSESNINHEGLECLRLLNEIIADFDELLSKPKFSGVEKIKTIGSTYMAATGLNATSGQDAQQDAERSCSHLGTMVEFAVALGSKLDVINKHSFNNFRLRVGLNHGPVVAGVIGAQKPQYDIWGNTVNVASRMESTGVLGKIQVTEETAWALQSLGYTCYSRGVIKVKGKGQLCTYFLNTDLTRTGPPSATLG
Outline: (§1)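 Adenylyl cyclase activity was measured in 100,000 × g membrane fractions prepared from HEK293 cells permanently transfected with C-terminally FLAG-tagged human AC isoforms. Assays contained 1 mM ATP and 2 mM MgCl2 with an ATP-regenerating system at pH 7.5.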

mAC2 = molecular target: T3, mAC2 (Homo sapiens, UniProt Q08462); assay: AC assay, Gsα-stimulated mAC2 in membranes from transfected HEK293 cells; conditions: Figure 5-figure supplement 1 left, 20 µM
T3 construct: Human mAC genes were from GenScript and fitted with a C-terminal FLAG-tag; FLAG (C); made in house; host or cells: HEK293, permanently transfected; membrane preparation
Outline: as §1

mAC1 = molecular target: T4, mAC1 (Homo sapiens, UniProt Q08828); assay: AC assay, Gsα-stimulated mAC1 in membranes from transfected HEK293 cells; conditions: 20 µM fatty acid; 300 nM Gsα; single experiments
T4 construct: Human mAC genes were from GenScript and fitted with a C-terminal FLAG-tag; FLAG (C); made in house; host or cells: HEK293, permanently transfected; membrane preparation
Outline: as §1

mAC6 = molecular target: T5, mAC6 (Homo sapiens, UniProt O43306); assay: AC assay, Gsα-stimulated mAC6 in membranes from transfected HEK293 cells; conditions: 20µM fatty acid concentration
T5 construct: Human mAC genes were from GenScript and fitted with a C-terminal FLAG-tag; FLAG (C); made in house; host or cells: HEK293, permanently transfected; membrane preparation
Outline: as §1

mAC5 = molecular target: T6, mAC5 (Homo sapiens, UniProt O95622); assay: AC assay, Gsα-stimulated mAC5 in membranes from transfected HEK293 cells
T6 construct: Human mAC genes were from GenScript and fitted with a C-terminal FLAG-tag; FLAG (C); made in house; host or cells: HEK293, permanently transfected; membrane preparation
Outline: as §1

T4 sequence (Q08828 whole entry): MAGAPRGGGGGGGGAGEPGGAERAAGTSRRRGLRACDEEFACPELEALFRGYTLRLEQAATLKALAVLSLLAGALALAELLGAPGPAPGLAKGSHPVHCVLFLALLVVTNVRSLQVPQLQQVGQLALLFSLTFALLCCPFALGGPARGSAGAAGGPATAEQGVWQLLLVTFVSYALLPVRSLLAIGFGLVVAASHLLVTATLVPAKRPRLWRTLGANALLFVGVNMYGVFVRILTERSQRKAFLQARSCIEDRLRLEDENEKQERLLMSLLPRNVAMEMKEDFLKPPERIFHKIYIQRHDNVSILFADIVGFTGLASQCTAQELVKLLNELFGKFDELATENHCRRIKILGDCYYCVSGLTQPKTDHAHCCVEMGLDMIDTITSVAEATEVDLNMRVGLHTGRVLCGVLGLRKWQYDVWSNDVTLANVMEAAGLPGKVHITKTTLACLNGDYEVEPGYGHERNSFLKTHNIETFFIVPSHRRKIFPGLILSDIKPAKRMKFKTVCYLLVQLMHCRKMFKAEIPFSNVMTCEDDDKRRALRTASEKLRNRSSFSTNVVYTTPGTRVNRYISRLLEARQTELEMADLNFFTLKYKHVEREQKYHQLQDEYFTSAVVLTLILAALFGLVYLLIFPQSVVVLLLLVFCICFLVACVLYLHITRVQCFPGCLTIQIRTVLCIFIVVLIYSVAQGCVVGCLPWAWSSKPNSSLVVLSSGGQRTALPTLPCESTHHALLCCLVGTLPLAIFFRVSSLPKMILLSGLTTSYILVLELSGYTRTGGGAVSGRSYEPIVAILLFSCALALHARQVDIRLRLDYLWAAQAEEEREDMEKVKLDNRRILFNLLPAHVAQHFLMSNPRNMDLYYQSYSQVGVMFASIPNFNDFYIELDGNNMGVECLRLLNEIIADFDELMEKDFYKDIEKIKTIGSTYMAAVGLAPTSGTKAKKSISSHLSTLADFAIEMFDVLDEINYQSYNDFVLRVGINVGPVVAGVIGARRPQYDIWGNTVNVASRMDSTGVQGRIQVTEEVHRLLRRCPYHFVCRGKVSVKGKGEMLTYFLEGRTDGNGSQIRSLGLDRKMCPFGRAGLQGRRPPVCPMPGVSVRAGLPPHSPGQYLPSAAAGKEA
T6 sequence (O95622 whole entry): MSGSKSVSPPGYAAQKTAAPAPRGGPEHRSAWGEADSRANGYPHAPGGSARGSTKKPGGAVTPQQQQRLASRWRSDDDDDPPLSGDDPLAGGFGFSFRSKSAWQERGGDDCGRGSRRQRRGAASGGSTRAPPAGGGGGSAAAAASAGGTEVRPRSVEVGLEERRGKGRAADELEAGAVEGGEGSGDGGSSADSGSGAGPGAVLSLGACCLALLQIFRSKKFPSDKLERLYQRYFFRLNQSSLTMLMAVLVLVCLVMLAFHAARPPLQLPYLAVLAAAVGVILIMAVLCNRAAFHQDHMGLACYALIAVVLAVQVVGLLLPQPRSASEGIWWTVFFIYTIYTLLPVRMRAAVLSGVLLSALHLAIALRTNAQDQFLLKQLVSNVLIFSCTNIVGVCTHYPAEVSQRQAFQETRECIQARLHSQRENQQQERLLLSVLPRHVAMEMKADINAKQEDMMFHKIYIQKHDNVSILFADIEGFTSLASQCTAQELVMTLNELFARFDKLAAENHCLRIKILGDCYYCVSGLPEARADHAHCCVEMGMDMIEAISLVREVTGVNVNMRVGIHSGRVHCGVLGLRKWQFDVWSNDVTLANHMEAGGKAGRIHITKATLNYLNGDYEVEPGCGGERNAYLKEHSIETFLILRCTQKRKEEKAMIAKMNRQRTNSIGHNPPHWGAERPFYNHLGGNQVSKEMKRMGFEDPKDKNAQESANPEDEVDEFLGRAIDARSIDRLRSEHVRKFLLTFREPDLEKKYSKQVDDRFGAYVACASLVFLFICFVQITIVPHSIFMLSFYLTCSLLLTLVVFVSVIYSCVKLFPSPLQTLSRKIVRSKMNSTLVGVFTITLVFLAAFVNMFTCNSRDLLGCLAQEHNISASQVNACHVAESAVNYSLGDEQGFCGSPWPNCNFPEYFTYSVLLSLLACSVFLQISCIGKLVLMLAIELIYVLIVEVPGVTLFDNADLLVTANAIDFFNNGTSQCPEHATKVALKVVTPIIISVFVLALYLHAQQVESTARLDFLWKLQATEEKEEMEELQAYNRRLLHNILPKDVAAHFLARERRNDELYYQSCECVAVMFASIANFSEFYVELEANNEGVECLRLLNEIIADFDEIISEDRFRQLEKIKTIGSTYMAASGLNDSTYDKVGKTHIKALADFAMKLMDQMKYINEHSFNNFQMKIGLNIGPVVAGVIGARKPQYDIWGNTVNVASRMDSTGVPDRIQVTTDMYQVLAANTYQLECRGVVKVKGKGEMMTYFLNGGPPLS
T5 sequence (O43306 whole entry): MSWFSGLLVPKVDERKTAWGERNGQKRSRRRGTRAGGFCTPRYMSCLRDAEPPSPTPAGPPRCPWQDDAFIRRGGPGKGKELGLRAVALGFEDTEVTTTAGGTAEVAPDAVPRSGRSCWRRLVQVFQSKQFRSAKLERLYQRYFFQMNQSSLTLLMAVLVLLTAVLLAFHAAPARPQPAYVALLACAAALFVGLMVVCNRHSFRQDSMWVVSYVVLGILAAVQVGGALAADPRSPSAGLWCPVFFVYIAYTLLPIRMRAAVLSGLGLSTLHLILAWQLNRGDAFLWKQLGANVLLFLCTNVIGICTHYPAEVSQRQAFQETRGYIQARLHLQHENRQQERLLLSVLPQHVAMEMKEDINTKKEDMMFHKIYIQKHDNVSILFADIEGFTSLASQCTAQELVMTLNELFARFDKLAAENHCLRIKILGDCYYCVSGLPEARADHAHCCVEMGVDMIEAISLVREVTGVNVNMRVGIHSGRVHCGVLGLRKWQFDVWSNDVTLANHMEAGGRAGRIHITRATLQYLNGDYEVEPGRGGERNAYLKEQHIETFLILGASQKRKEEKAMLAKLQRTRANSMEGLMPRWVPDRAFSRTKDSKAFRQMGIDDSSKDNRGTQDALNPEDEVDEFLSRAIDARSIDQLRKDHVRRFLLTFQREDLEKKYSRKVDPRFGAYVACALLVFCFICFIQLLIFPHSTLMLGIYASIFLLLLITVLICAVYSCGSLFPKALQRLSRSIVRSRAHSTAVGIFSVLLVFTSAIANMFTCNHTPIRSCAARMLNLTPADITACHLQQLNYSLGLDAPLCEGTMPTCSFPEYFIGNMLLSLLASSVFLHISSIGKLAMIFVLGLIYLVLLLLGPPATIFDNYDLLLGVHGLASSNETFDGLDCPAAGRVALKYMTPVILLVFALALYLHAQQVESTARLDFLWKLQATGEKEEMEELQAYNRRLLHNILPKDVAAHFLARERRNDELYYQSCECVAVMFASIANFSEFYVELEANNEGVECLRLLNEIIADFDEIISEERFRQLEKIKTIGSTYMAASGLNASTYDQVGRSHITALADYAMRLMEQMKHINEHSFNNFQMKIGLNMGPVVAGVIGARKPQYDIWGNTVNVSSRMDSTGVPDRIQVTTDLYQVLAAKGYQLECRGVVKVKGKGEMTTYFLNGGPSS
T3 sequence (Q08462 whole entry): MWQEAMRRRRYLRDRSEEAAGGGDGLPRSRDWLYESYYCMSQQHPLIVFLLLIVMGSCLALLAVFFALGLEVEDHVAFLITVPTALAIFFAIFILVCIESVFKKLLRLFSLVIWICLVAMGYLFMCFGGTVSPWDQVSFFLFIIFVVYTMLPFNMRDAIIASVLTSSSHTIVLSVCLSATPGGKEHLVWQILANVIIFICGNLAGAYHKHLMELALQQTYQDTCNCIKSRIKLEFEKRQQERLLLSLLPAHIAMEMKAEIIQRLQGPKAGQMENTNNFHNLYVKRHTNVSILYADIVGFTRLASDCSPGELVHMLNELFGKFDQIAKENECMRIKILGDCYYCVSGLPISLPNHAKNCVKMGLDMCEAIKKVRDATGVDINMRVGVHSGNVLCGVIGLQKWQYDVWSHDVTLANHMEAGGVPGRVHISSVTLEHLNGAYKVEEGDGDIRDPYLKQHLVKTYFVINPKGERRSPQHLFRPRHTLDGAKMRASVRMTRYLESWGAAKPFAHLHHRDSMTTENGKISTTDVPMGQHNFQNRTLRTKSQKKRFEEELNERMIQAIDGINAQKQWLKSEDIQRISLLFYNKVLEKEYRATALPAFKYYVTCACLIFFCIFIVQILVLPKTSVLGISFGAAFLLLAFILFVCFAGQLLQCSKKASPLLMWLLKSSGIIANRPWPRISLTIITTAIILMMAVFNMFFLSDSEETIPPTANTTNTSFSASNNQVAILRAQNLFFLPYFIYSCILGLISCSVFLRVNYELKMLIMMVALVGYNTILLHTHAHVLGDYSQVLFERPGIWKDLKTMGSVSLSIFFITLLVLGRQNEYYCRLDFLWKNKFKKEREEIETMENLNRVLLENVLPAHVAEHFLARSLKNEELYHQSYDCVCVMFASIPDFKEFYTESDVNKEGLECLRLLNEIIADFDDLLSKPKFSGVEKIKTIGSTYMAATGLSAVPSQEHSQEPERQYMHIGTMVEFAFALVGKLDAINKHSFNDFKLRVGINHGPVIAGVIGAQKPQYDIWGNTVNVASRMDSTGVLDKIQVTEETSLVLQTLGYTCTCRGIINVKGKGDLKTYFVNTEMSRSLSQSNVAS
T3 sequence (P63092 2-394 Q227L partner): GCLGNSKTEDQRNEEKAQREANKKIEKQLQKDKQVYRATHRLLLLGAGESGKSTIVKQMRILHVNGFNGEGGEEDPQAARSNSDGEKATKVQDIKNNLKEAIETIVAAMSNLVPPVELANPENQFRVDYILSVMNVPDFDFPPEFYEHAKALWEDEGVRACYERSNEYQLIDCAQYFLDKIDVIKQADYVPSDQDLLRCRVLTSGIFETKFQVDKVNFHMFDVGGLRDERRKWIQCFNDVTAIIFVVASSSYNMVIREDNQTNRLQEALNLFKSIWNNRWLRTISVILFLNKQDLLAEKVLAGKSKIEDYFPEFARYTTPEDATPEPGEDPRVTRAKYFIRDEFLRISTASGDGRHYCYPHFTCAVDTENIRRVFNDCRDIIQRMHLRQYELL

## CCCCCCCCCCCCCCCCCC(=O)O [Stearic acid, Stearic (octadecanoic) acid]
mAC8
  mAC8 activity [%] (100% = 300nM Gsα stimulation): 107% and 102%
mAC4
  mAC4 activity [%] (100% = 300nM Gsα stimulation); 20µM fatty acid concentration: 79% and 60% and 83%
mAC2
  mAC2 activity [%] (100% = 300nM Gsα stimulation); 20µM fatty acid concentration: 100% and 101% and 84% and 89%
mAC1
  mAC1 activity [%] (100% = 300nM Gsα stimulation); 20µM fatty acid concentration: 126% and 77% and 95%
mAC6
  mAC6 activity [%] (100% = 300nM Gsα stimulation): 88% and 61% and 94% and 93%
mAC5; 20µM fatty acid concentration
  mAC5 activity [%] (100% = 300nM Gsα stimulation): 73% and 93% and 77%
mAC5; fatty acid 0.5 µM, individual experiments
  mAC5 activity [%] (100% = 300nM Gsα stimulation): 100%
mAC5; fatty acid 1 µM, individual experiments
  mAC5 activity [%] (100% = 300nM Gsα stimulation): 134% and 72%
mAC5; fatty acid 3 µM, individual experiments
  mAC5 activity [%] (100% = 300nM Gsα stimulation): 73% and 80% and 162%
mAC5; fatty acid 6 µM, individual experiments
  mAC5 activity [%] (100% = 300nM Gsα stimulation): 124% and 75% and 108% and 125%
mAC5; fatty acid 10 µM, individual experiments
  mAC5 activity [%] (100% = 300nM Gsα stimulation): 73% and 93% and 77%
mAC5; fatty acid 20 µM, individual experiments
  mAC5 activity [%] (100% = 300nM Gsα stimulation): 80% and 91% and 83%
